Values after ≈ are worked out from the molar mass of the structure shown.
Columns and labels:
[1] = Hepatic clearance in human liver microsomes; assay type: ADME, Microsome; conditions: read-out: CLH
[2] = Lipophilicity, log D of the compound; assay type: physicochemical; conditions: octanol/water
[3] = Systemic clearance in rat at 1 mg/kg, iv; assay type: ADME, organism-based; design: dose 1 mg/kg, route intravenous; conditions: in vivo
[4] = Volume of distribution in rat at 1 mg/kg, iv; assay type: ADME, organism-based; design: dose 1 mg/kg, route intravenous; conditions: in vivo
[5] = AUC (last) in rat at 5 mg/kg, po; assay type: ADME, organism-based; design: time 0 - last, dose 5 mg/kg, route oral; conditions: plasma
[6] = Cmax in rat at 5 mg/kg, po; assay type: ADME, organism-based; design: dose 5 mg/kg, route oral; conditions: in vivo
[7] = Oral bioavailability in rat at 5 mg/kg; assay type: ADME, organism-based; conditions: in vivo
[8] = Solubility of the compound at pH 6.5; assay type: physicochemical; conditions: buffer
[9] = Thermodynamic solubility of the compound at pH 1.2; assay type: physicochemical; conditions: buffer, read-out: Therm_solubility

SMILES	microsomal CLint [1] [µL/min/mg]	logD [2]	further results
CN(C)c1ccc2ccc(C(=O)N3CCC4(CC3)Cc3cn(C(C)(C)C)nc3C(=O)N4)cc2n1	19	1.9	
CC(C)(C)n1cc2c(n1)C(=O)NC1(CCN(C(=O)c3ccc4[nH]nc(C(F)(F)F)c4c3)CC1)C2	< 8	2.5	
CC(C)(C)n1cc2c(n1)C(=O)NC1(CCN(C(=O)c3ccc4[nH]nc(Cl)c4c3)CC1)C2	< 8	1.8	
CC(C)(C)n1cc2c(n1)C(=O)NC1(CCN(C(=O)c3ccc4[nH]cc(Cl)c4c3)CC1)C2	17	2.6	
CC(C)(C)n1cc2c(n1)C(=O)NC1(CCN(C(=O)c3ccc4c(Cl)c[nH]c4c3)CC1)C2	31	3.5	
CC(C)(C)n1cc2c(n1)C(=O)NC1(CCN(C(=O)c3cnc4c(Cl)c[nH]c4c3)CC1)C2	< 8	1.4	
COc1cc2cc(C(=O)N3CCC4(CC3)Cc3cn(C(C)(C)C)nc3C(=O)N4)ccc2cn1	< 8	1.6	
COc1ccc2ccc(C(=O)N3CCC4(CC3)Cc3cn(C(C)(C)C)nc3C(=O)N4)cc2n1	< 8	2.2	clearance [3]: 29 mL/min/kg; Vd [4]: 1.7 L/kg; AUC(0-t) [5]: 2070 ng·h/mL; Cmax [6]: 403 ng/mL; bioavailability [7]: 71%; solubility [8]: 0.05 µg/mL (≈ 0.112 µM); solubility thermodynamic [9]: 0.49 µg/mL (≈ 1.09 µM)
COc1nccc2ccc(C(=O)N3CCC4(CC3)Cc3cn(C(C)(C)C)nc3C(=O)N4)cc12	12	2	clearance [3]: 41 mL/min/kg; AUC(0-t) [5]: 713 ng·h/mL; Cmax [6]: 186 ng/mL; bioavailability [7]: 28%; solubility [8]: 0.13 µg/mL (≈ 0.29 µM)
CNc1ccc2ccc(C(=O)N3CCC4(CC3)Cc3cn(C(C)(C)C)nc3C(=O)N4)cc2n1	9	1.5	solubility thermodynamic [9]: 4.8 µg/mL (≈ 10.7 µM)
CNc1nccc2ccc(C(=O)N3CCC4(CC3)Cc3cn(C(C)(C)C)nc3C(=O)N4)cc12	25	1.5	
CCCNc1ccc2ccc(C(=O)N3CCC4(CC3)Cc3cn(C(C)(C)C)nc3C(=O)N4)cc2n1	29	2.1	
CC(C)(C)n1cc2c(n1)C(=O)CC1(CCN(C(=O)c3ccc4[nH]ncc4c3)CC1)O2	< 9	1.4	
Cc1ccc2c(c1)C(=O)CC1(CCN(C(=O)c3ccc4[nH]ncc4c3)CC1)O2	19	2.5	
CC(C)(C)n1cc2c(n1)C(=O)NC1(CCN(C(=O)c3ccc4[nH]ncc4c3)CC1)C2	< 8	1	
Cc1n[nH]c2c(C)cc(C(=O)N3CCC4(CC3)Cc3cn(C(C)(C)C)nc3C(=O)N4)cc12	< 8	1.5	
Cc1n[nH]c2c(C)cc(C(=O)N3CCC4(CC3)Cc3cn(C(C)C)nc3C(=O)N4)cc12	< 8	1.1	
CCC(C)(C)n1cc2c(n1)C(=O)NC1(CCN(C(=O)c3cc(C)c4[nH]nc(C)c4c3)CC1)C2	35	1.7	
Cc1n[nH]c2c(C)cc(C(=O)N3CCC4(CC3)Cc3cnn(C(C)(C)C)c3C(=O)N4)cc12	17	2.6	
Cc1n[nH]c2c(C)cc(C(=O)N3CCC4(CC3)Cc3cnn(C(C)C)c3C(=O)N4)cc12	< 8	1.7	
Cc1n[nH]c2c(C)cc(C(=O)N3CCC4(CC3)Cc3cn(C(C)(C)C)nc3C(=O)N4C)cc12	14	1.4	
